In the assay the target is A2aR (hA2aR) (Homo sapiens, UniProt P29274). As to the kind of experiment: flow cytometry, fluorescent agonist equilibrium binding to HEK293-A2aR cells. It counts as cell-based. In general terms: Flow cytometry measures light scatter and fluorescence of single cells or particles in a stream.
Sequence of A2aR (hA2aR) (P29274 whole entry): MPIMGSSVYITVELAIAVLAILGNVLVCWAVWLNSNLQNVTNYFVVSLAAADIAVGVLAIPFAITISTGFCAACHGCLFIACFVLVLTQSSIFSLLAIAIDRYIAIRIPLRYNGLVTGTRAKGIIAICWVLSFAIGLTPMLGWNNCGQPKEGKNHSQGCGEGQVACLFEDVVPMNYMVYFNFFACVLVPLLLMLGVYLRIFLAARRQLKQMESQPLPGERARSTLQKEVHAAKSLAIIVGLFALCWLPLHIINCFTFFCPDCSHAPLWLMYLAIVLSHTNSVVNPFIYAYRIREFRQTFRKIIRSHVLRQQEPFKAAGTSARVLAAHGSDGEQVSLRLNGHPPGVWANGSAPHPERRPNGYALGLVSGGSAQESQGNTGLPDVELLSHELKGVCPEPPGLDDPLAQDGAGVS

With `CCNC(=O)[C@H]1O[C@@H](n2cnc3c(N)nc(NCCc4ccc(CCC(=O)NCCNC(=S)Nc5ccc6c(c5)C(=O)OC65c6ccc(O)cc6Oc6cc(O)ccc65)cc4)nc32)[C@H](O)[C@@H]1O` [FITC-APEC], the equilibrium ligand binding entry is on record as “equilibrium ligand binding of the fluorescent agonist APEC-FITC was unchanged following cholesterol depletion”.

The values are drawn from PMC6383678 (Biochimica et biophysica acta. Biomembranes, 2019).
